Measured values taken from US7002022B2, “N-Aryl (thio) anthranilic acid amide derivatives, their preparation and their use as VEGF” (Novartis AG, priority 1998, dated 2006).

Legend:
[1] = target: T1, Flt-1 VEGF-receptor tyrosine kinase (Homo sapiens, UniProt P17948); assay: Test for activity against Flt-1 VEGF-receptor tyrosine kinase; assay type: biochemical; settings: kinase domain of Flt-1, poly(Glu,Tyr) 4:1, 8 μM [33P]-ATP, 10 minutes at room temperature
T1 construct: 10 ng of the kinase domain of Flt-1
T1 sequence (P17948 827-1158 limits assumed): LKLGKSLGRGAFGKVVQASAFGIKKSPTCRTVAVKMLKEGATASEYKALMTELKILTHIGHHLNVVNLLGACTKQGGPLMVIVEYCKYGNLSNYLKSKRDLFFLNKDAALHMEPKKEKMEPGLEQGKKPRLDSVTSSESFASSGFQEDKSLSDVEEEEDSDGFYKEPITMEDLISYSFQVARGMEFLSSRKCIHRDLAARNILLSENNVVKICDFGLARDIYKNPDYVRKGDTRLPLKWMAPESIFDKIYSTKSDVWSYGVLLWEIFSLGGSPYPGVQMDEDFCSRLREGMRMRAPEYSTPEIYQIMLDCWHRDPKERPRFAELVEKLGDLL
Procedure: Test for activity against VEGF-receptor tyrosine kinase. The test is conducted using Flt-1 VEGF-receptor tyrosine kinase. […] The reaction is then terminated by the addition of 10 μl 0.25 M ethylenediaminetetraacetate (EDTA) pH 7. Using a multichannel dispenser (LAB SYSTEMS, USA), an aliquot of 20 μl is applied to a PVDF (=polyvinyl difluoride) Immobilon P membrane (Millipore, USA), through a Millipore microtiter filter manifold and connected to a vacuum. Following complete elimination of the liquid, the membrane is washed 4 times successively in a bath containing 0.5% phosphoric acid (H3PO4) and once with ethanol, incubated for 10 minutes each time while shaking, then mounted in a Hewlett Packard TopCount Manifold and the radioactivity measured after the addition of 10 μl Microscint® (β-scintillation counter liquid).
The test is conducted using Flt-1 VEGF-receptor tyrosine kinase, as described hereinabove.

Structure (SMILES)	melting point [°C]	IC50 [1] [nM]
O=C(Nc1ccccc1)c1ccccc1NCc1ccncc1 [Example 3, 2-[(4-Pyridyl)methyl]amino-N-phenylbenzamide]	160 to 161	
Cc1ccc(NC(=O)c2ccccc2NCc2ccncc2)cc1 [Example 5, 2-[(4-Pyridyl)methyl]amino-N-(4-methylphenyl)benzamide]		260
O=C(Nc1ccc(Cl)c(C(F)(F)F)c1)c1ccccc1NCc1ccncc1 [Example 7, 2-[(4-Pyridyl)methyl]amino-N-[4-chloro-3-(trifluoromethyl)phenyl]benzamide]	162 to 172	560
O=C(Nc1cc(Cl)cc(C(F)(F)F)c1)c1ccccc1NCc1ccncc1 [Example 8, 2-[(4-Pyridyl)methyl]amino-N-[3-chloro-5-(trifluoromethyl)phenyl]benzamide]	190 to 194	
O=C(Nc1ccc(F)c(C(F)(F)F)c1)c1ccccc1NCc1ccncc1 [Example 9, 2-[(4-Pyridyl)methyl]amino-N-[4-fluoro-3-(trifluoromethyl)phenyl]benzamide]	183 to 185	
O=C(Nc1cc(F)cc(C(F)(F)F)c1)c1ccccc1NCc1ccncc1 [Example 10, 2-[(4-Pyridyl)methyl]amino-N-[3-fluoro-5-(trifluoromethyl)phenyl]benzamide]	196 to 197	
COc1cc(NC(=O)c2ccccc2NCc2ccncc2)cc(C(F)(F)F)c1 [Example 13, 2-[(4-Pyridyl)methyl]amino-N-[3-methoxy-5-(trifluoromethyl)phenyl]benzamide]	134 to 136	
CC(C)(C)c1cccc(NC(=O)c2ccccc2NCc2ccncc2)c1 [Example 15, 2-[(4-Pyridyl)methyl]amino-N-[3-(1,1-dimethylethyl)phenyl]benzamide]	144 to 147	
N#Cc1cccc(NC(=O)c2ccccc2NCc2ccncc2)c1 [Example 16, 2-[(4-Pyridyl)methyl]amino-N-(3-cyanophenyl)benzamide]	157 to 160	
CC(=O)Nc1cccc(NC(=O)c2ccccc2NCc2ccncc2)c1 [Example 18, 2-[(4-Pyridyl)methyl]amino-N-(3-acetylaminophenyl)benzamide]	157 to 158	
NC(=O)Nc1cccc(NC(=O)c2ccccc2NCc2ccncc2)c1 [Example 19, 2-[(4-Pyridyl)methyl]amino-N-[3-[(aminocarbonyl)amino]phenyl]benzamide]	200 to 202	
CN(C)c1cccc(NC(=O)c2ccccc2NCc2ccncc2)c1 [Example 20, 2-[(4-Pyridyl)methyl]amino-N-[3-(dimethylamino)phenyl]benzamide]	152 to 154	
COc1ccc(NCc2ccncc2)c(C(=O)Nc2cccc(C(F)(F)F)c2)c1 [Example 21, 5-Methoxy-2-[(4-pyridyl)methyl]amino-N-[3-(trifluoromethyl)phenyl]benzamide]	175 to 178	
O=C(Nc1cccc(C(F)(F)F)c1)c1cc(F)c(F)cc1NCc1ccncc1 [Example 23, 4,5-Difluoro-2-[(4-pyridyl)methyl]amino-N-[3-(trifluoromethyl)phenyl]benzamide]	175 to 178	
CN(C(=O)c1ccccc1NCc1ccncc1)c1cccc(C(F)(F)F)c1 [Example 24, 2-[(4-Pyridyl)methyl]amino-N-methyl-N-[3-(trifluoromethyl)phenyl]benzamide]	127 to 128	
CC(C)(C)c1ccc(NC(=O)c2ccccc2NCc2ccncc2)cc1 [Example 27, 2-[(4-Pyridyl)methyl]amino-N-[4-(1,1-dimethylethyl)phenyl]benzamide]	168 to 170	
O=C(Nc1cccc(Cl)c1)c1ccccc1NCc1ccncc1 [Example 28, 2-[(4-Pyridyl)methyl]amino-N-(3-chlorophenyl)benzamide]	131 to 133	
O=C(Nc1cccc(Br)c1)c1ccccc1NCc1ccncc1 [Example 29, 2-[(4-Pyridyl)methyl]amino-N-(3-bromophenyl)benzamide]	156 to 159	
Cc1cccc(NC(=O)c2ccccc2NCc2ccncc2)c1 [Example 30, 2-[(4-Pyridyl)methyl]amino-N-(3-methylphenyl)benzamide]	139 to 140	
NC(=O)c1cccc(NC(=O)c2ccccc2NCc2ccncc2)c1 [Example 32, 2-[(4-Pyridyl)methyl]amino-N-[3-(aminocarbonyl)phenyl]benzamide]	195 to 203	

Structure (SMILES)	melting point [°C]	IC50 [1] [nM]
Cc1ccc(NC(=O)c2c(C)cccc2NCc2ccncc2)cc1 [Example 33, 2-[(4-Pyridyl)methyl]amino-N-(4-methylphenyl)-6-methylbenzamide]	162 to 163	
O=C(Nc1cccc(C(F)(F)F)c1)c1ccccc1NCc1cccnc1 [Example 34, 2-[(3-Pyridyl)methyl]amino-N-[3-(trifluoromethyl)phenyl]benzamide]	140 to 142	
O=C(Nc1cccc(C(F)(F)F)c1)c1ccccc1NCc1ccnc2ccccc12 [Example 35, 2-[(4-Quinolinyl)methyl]amino-N-[3-(trifluoromethyl)phenyl]benzamide]	191 to 193	
O=C(Nc1cccc(C(F)(F)F)c1)c1ccccc1NCc1cccc2ncccc12 [Example 36, 2-[(5-Quinolinyl)methyl]amino-N-[3-(trifluoromethyl)phenyl]benzamide]	176 to 178	
O=C(Nc1ccc(Cl)cc1)c1ccccc1NCc1ccnc2ccccc12 [Example 39, 2-[(4-Quinolinyl)methyl]amino-N-(4chlorophenyl)benzamide]	178 to 209	
O=C(Nc1ccc(Cl)cc1)c1ccccc1NCc1ncc[nH]1 [Example 40, 2-[(2-Imidazolyl)methyl]amino-N-(4chlorophenyl)benzamide]	181 to 184	
O=C(Nc1cccc(C(F)(F)F)c1)c1ccccc1NCCc1cccnc1 [Example 42, 2-[2-(3-Pyridyl)ethyl]amino-N-[3-(trifluoromethyl)phenyl]benzamide]	102 to 103	
Cc1cccc(NCc2ccncc2)c1C(=O)Nc1ccc(Cl)cc1 [Example 47, 6-methyl-2-[(4-pyridyl)methyl]amino-N-(4-chlorophenyl)benzamide]	190	
O=C(Nc1ccc(Cl)cc1)c1c(Cl)cccc1NCc1ccncc1 [Example 48, 6-chloro-2-[(4-pyridyl)methyl]amino-N-(4-chlorophenyl)benzamide]	183 to 185	
O=C(Nc1ccc2cccc(O)c2c1)c1ccccc1NCc1ccncc1 [Example 54, 2-[(4-pyridyl)methyl]amino-N-(8-hydroxy-2-naphthyl)benzamide]	235	
O=C(Nc1ccc(Cl)cc1)c1ccc(Cl)cc1NCc1ccncc1 [Example 55, 4-chloro-2-[(4-pyridyl)methyl]amino-N-(4-chlorophenyl)benzamide]	186	
Cc1ccc(NCc2ccncc2)c(C(=O)Nc2ccc(Cl)cc2)c1 [Example 56, 5-methyl-2-[(4-pyridyl)methyl]amino-N-(4-chlorophenyl)benzamide]	127	
O=C(Nc1ccc(Cl)cc1)c1cc(Cl)ccc1NCc1ccncc1 [Example 59, 5-chloro-2-[(4-pyridyl)methyl]amino-N-(4-chlorophenyl)benzamide]	206 to 207	
COc1cc(NC(=O)c2ccccc2NCc2ccncc2)cc2ccccc12 [Example 64, 2-[(4-pyridyl)methyl]amino-N-(4-methoxy-2-naphthyl)benzamide]	152 to 154	
O=C(Nc1cc2ccccc2cc1Br)c1ccccc1NCc1ccncc1 [Example 65, 2-[(4-pyridyl)methyl]amino-N-(3-bromo-2-naphthyl)benzamide]	130 to 132	
CC(C)OC(=O)c1ccc(NC(=O)c2ccccc2NCc2ccncc2)cc1 [Example 66, 2-[(4-pyridyl)methyl]amino-N-[4-(isopropoxycarbonyl)phenyl]benzamide]	70	
CC(C)NC(=O)c1ccc(NC(=O)c2ccccc2NCc2ccncc2)cc1 [Example 68, 2-[(4-pyridyl)methyl]amino-N-[4-(isopropylcarbamoyl)phenyl]benzamide]	79	
Cc1ccc(NC(=O)c2ccccc2NCc2ccncc2)cc1Cl [Example 69, 2-[(4-pyridyl)methyl]amino-N-(3-chloro-4-methylphenyl)benzamide]	143	
Cc1ccccc1NC(=O)c1ccccc1NCc1ccncc1 [Example 70, 2-[(4-pyridyl)methyl]amino-N-(2-methylphenyl)benzamide]	143	
